From ChEMBL document CHEMBL4483862, “Open-source discovery of chemical leads for next-generation chemoprotective antimalarials” (2018)

Tested on: Plasmodium berghei
Assay: Luciferase/luciferin-expressing antifolate-resistant parasites were used to infect a culture of HepG2 cells that were pre-incubated with compounds. Infected hepatocytes emit light due to the luciferase reaction. Assay results are presented as the percent inhibition of light emission compared to control. […]
Format: functional
Conditions: sporozoite; for IC90: read-out: LUCIFERASE INFECTION ASSAY - IC90

Row | SMILES | IC90 | other results
1 | NC(CCc1ccccc1)c1csc(Nc2ccc(C(F)(F)F)cn2)n1 (stereo not given) | 4.5 µM | IC50 (PBLUC_HILL_SLOPE 84.8, PBLUC_R_SQUARED 0.093, read-out: LUCIFERASE INFECTION ASSAY - IC50): 4.38 µM
2 | Cc1nc(-c2ccccn2)nc(N(C)Cc2ccccc2)c1Cl | 3.5 µM | IC50 (PBLUC_HILL_SLOPE 72.3, PBLUC_R_SQUARED 0.385, read-out: LUCIFERASE INFECTION ASSAY - IC50): 3.4 µM
3 | O=C1c2ccccc2O[C@@H](c2ccc(Cl)cc2)[C@@H]1O | > 12 µM | IC50 (PBLUC_HILL_SLOPE 64.7, PBLUC_R_SQUARED 0.241, read-out: LUCIFERASE INFECTION ASSAY - IC50): 12 µM
4 | COc1cc(OC)nc(Nc2nc(C(N)C3CCCCC3)cs2)n1 (stereo not given) | > 9.44 µM | IC50 (PBLUC_HILL_SLOPE 67.6, PBLUC_R_SQUARED 0.122, read-out: LUCIFERASE INFECTION ASSAY - IC50): 9.15 µM
5 | c1ccc(-c2cn3nc(NCC(c4cccs4)N4CCOCC4)sc3n2)cc1 (stereo not given) | 6.67 µM | IC50 (PBLUC_HILL_SLOPE 82.8, PBLUC_R_SQUARED 0.111, read-out: LUCIFERASE INFECTION ASSAY - IC50): 6.5 µM
6 | CC(C)c1ccc(/C=C2\CCc3c2nc2ccccc2c3C(=O)O)cc1 | 0.0263 µM | IC50 (PBLUC_HILL_SLOPE 81.7, PBLUC_R_SQUARED 0.0337, read-out: LUCIFERASE INFECTION ASSAY - IC50): 0.0256 µM
7 | CNC(=O)c1ccc(CN(C(=O)/C=C/c2ccc(-c3ccccc3F)s2)C2CC2)cc1 | 6.45 µM | IC50 (PBLUC_HILL_SLOPE 95.6, PBLUC_R_SQUARED 0.262, read-out: LUCIFERASE INFECTION ASSAY - IC50): 6.3 µM
8 | Cc1cc(N2CCN(CC(=O)N(C)C)CC2)nc2c(C(C)C)cccc12 | 6.13 µM | IC50 (PBLUC_HILL_SLOPE 64.7, PBLUC_R_SQUARED 0.2, read-out: LUCIFERASE INFECTION ASSAY - IC50): 5.93 µM
9 | Cc1nc(Sc2ncnc3sc4c(c23)CCC4)sc1CC(N)=O | 1.96 µM | IC50 (PBLUC_HILL_SLOPE 51.2, PBLUC_R_SQUARED 0.477, read-out: LUCIFERASE INFECTION ASSAY - IC50): 1.88 µM
10 | CN1CCN(c2nc(-c3c[nH]c4ccccc34)c(-c3ccccc3)s2)CC1 | > 10 µM | IC50 (PBLUC_HILL_SLOPE 45.6, PBLUC_R_SQUARED 0.243, read-out: LUCIFERASE INFECTION ASSAY - IC50): 9.92 µM
11 | C[C@H](Nc1ccc(C(F)(F)F)cc1[N+](=O)[O-])C(=O)Nc1nc2ccccc2[nH]1 | 6.29 µM | IC50 (PBLUC_HILL_SLOPE 74.9, PBLUC_R_SQUARED 0.587, read-out: LUCIFERASE INFECTION ASSAY - IC50): 6.11 µM
12 | Cc1nc(NC(=O)c2cn3ccccc3n2)sc1Cc1ccc2c(c1)OCO2 | 3.5 µM | IC50 (PBLUC_HILL_SLOPE 53.8, PBLUC_R_SQUARED 0.294, read-out: LUCIFERASE INFECTION ASSAY - IC50): 3.36 µM
13 | CC(C)CC(N)c1csc(NC(=O)Nc2ccc(OC(F)(F)F)cc2)n1 (stereo not given) | 5.1 µM | IC50 (PBLUC_HILL_SLOPE 53.9, PBLUC_R_SQUARED 0.0664, read-out: LUCIFERASE INFECTION ASSAY - IC50): 4.89 µM
14 | CCCCCCn1c(SCc2cc(=O)oc3cc(C)ccc23)nnc1-c1c[nH]c2ccccc12 | > 10 µM | IC50 (PBLUC_HILL_SLOPE 85.8, PBLUC_R_SQUARED 0.0287, read-out: LUCIFERASE INFECTION ASSAY - IC50): 9.99 µM
15 | CC(Oc1ccc(C(=O)NCc2ccnc(N(C)C)c2)cn1)c1ccccc1 (stereo not given) | 6.11 µM | IC50 (PBLUC_HILL_SLOPE 81.7, PBLUC_R_SQUARED 0.538, read-out: LUCIFERASE INFECTION ASSAY - IC50): 5.95 µM
16 | CN(CC(=O)Nc1c(Cl)cccc1Cl)C(=O)c1cccc(Oc2cccc(C(F)(F)F)c2)c1 | 6.4 µM | IC50 (PBLUC_HILL_SLOPE 97.2, PBLUC_R_SQUARED 0.277, read-out: LUCIFERASE INFECTION ASSAY - IC50): 6.26 µM
17 | COc1cc(Br)cc(/C=N/NC(=S)NC(C)(C)C)c1O | 6.76 µM | IC50 (PBLUC_HILL_SLOPE 63.8, PBLUC_R_SQUARED 0.286, read-out: LUCIFERASE INFECTION ASSAY - IC50): 6.53 µM
18 | Cc1c(CN2CCN(c3ccccn3)CC2)noc1-c1ccc(F)cc1 | 3.45 µM | IC50 (PBLUC_HILL_SLOPE 83.7, PBLUC_R_SQUARED 0.475, read-out: LUCIFERASE INFECTION ASSAY - IC50): 3.36 µM
19 | NC(=O)C(C(=O)/C=C/c1ccc(Cl)cc1)=C1SCS1 | 4.75 µM | IC50 (PBLUC_HILL_SLOPE 78.5, PBLUC_R_SQUARED 0.479, read-out: LUCIFERASE INFECTION ASSAY - IC50): 4.62 µM
20 | CCOc1ccc(/C=C(/C(=O)NCc2ccc(F)cc2)c2nc3ccccc3[nH]2)cc1 | 5.81 µM | IC50 (PBLUC_HILL_SLOPE 89.9, PBLUC_R_SQUARED 0.419, read-out: LUCIFERASE INFECTION ASSAY - IC50): 5.67 µM

Row | SMILES | IC90 | other results
21 | CCCCc1ccc(N(C(=O)Nc2ccc(Cl)cc2)C2=NC(CC)CS2)cc1 (stereo not given) | > 10 µM | IC50 (PBLUC_HILL_SLOPE 93.6, PBLUC_R_SQUARED 0.111, read-out: LUCIFERASE INFECTION ASSAY - IC50): 9.99 µM
22 | O=C(NCCC1=CCCCC1)Nc1ccc(OC(F)(F)F)cc1 | > 10.1 µM | IC50 (PBLUC_HILL_SLOPE 77.5, PBLUC_R_SQUARED 0.175, read-out: LUCIFERASE INFECTION ASSAY - IC50): > 10.1 µM
23 | CC(C)N(C(=O)CSc1ccc(F)c(F)c1)c1ccc(Nc2ccccc2)cc1 | 6.35 µM | IC50 (PBLUC_HILL_SLOPE 46.2, PBLUC_R_SQUARED 0.0491, read-out: LUCIFERASE INFECTION ASSAY - IC50): 6.06 µM
24 | COc1ncccc1C(=O)Nc1cc(Cl)cc(Cl)c1 | 3.83 µM | IC50 (PBLUC_HILL_SLOPE 56, PBLUC_R_SQUARED 0.566, read-out: LUCIFERASE INFECTION ASSAY - IC50): 3.68 µM
25 | COc1ccc(Cl)cc1C(=O)NNC(=O)CSc1nccn1-c1ccc(C)c(C)c1 | 6.58 µM | IC50 (PBLUC_HILL_SLOPE 46.1, PBLUC_R_SQUARED 0.54, read-out: LUCIFERASE INFECTION ASSAY - IC50): 6.27 µM
26 | COc1ccc(C2CCCCCN2C(=O)CCc2c(C)[nH]c(-c3ccccc3)nc2=O)cc1 (stereo not given) | 3.45 µM | IC50 (PBLUC_HILL_SLOPE 57.7, PBLUC_R_SQUARED 0.487, read-out: LUCIFERASE INFECTION ASSAY - IC50): 3.32 µM
27 | CC(C)(C)c1ccc(-c2nnc(SCc3ccccc3Cl)n2-c2cccc(C(F)(F)F)c2)cc1 | > 6.57 µM | IC50 (PBLUC_HILL_SLOPE 55, PBLUC_R_SQUARED 0.768, read-out: LUCIFERASE INFECTION ASSAY - IC50): 6.56 µM
28 | CN(Cc1ccc(C(=O)NC2CC2)cc1)c1ncccc1[N+](=O)[O-] | 6.56 µM | IC50 (PBLUC_HILL_SLOPE 96.1, PBLUC_R_SQUARED 0.262, read-out: LUCIFERASE INFECTION ASSAY - IC50): 6.41 µM
29 | COc1ccc(/C=C2\N=C(SCC(=O)O)N(Cc3ccccc3)C2=O)cc1 | 0.545 µM | IC50 (PBLUC_HILL_SLOPE 72.9, PBLUC_R_SQUARED 0.433, read-out: LUCIFERASE INFECTION ASSAY - IC50): 0.529 µM
30 | CS(=O)(=O)NC1CCN(c2nc(-c3ccccn3)nc3sc(-c4ccccc4)cc23)CC1 | 3.42 µM | IC50 (PBLUC_HILL_SLOPE 90.2, PBLUC_R_SQUARED 0.429, read-out: LUCIFERASE INFECTION ASSAY - IC50): 3.34 µM
31 | C=CCN(c1ccccc1OC)S(=O)(=O)c1cccc(C(=O)Oc2c(Cl)cc(Cl)c3ccc(C)nc23)c1 | 6.11 µM | IC50 (PBLUC_HILL_SLOPE 68.6, PBLUC_R_SQUARED 0.538, read-out: LUCIFERASE INFECTION ASSAY - IC50): 5.92 µM
32 | Cc1nc2ccccc2n1CCNC(=O)c1ccc(Cl)cc1NC(=O)c1cccs1 | 4.77 µM | IC50 (PBLUC_HILL_SLOPE 48.3, PBLUC_R_SQUARED 0.528, read-out: LUCIFERASE INFECTION ASSAY - IC50): 4.56 µM
33 | O=C(NNC(=O)c1nn(-c2ccccc2)cc1O)c1ccc2c(c1)OCO2 | 6.28 µM | IC50 (PBLUC_HILL_SLOPE 71.1, PBLUC_R_SQUARED 0.59, read-out: LUCIFERASE INFECTION ASSAY - IC50): 6.09 µM
34 | NC(=O)c1ccc(-c2cc(-c3cccc(C(F)(F)F)c3)cnc2N)cc1 | 5.02 µM | IC50 (PBLUC_HILL_SLOPE 80.6, PBLUC_R_SQUARED 0.104, read-out: LUCIFERASE INFECTION ASSAY - IC50): 4.88 µM
35 | CN(C)CCNC(=O)c1ccc(-c2cnc3c(Nc4cccc(C(F)(F)F)c4)nccn23)cc1 | > 7.04 µM | IC50 (PBLUC_HILL_SLOPE 63.8, PBLUC_R_SQUARED 0.339, read-out: LUCIFERASE INFECTION ASSAY - IC50): 6.95 µM
36 | NC(Cc1ccc(F)cc1)c1csc(NC(=O)c2ccc(F)c(Cl)c2)n1 (stereo not given) | 5.68 µM | IC50 (PBLUC_HILL_SLOPE 84.1, PBLUC_R_SQUARED 0.0637, read-out: LUCIFERASE INFECTION ASSAY - IC50): 5.54 µM
37 | CCOc1ccccc1NC(=O)c1nc(-c2ccccc2)n(-c2ccccc2)n1 | 3.4 µM | IC50 (PBLUC_HILL_SLOPE 61.7, PBLUC_R_SQUARED 0.143, read-out: LUCIFERASE INFECTION ASSAY - IC50): 3.28 µM
38 | COc1cc(C(=O)Nc2ccc(Cn3cncn3)cc2)ccc1Oc1ccc(Cl)cc1[N+](=O)[O-] | 6.19 µM | IC50 (PBLUC_HILL_SLOPE 72.9, PBLUC_R_SQUARED 0.579, read-out: LUCIFERASE INFECTION ASSAY - IC50): 6.01 µM
39 | Cc1[nH]c(-c2ccccn2)nc(=O)c1CC(=O)NC1CCCCCCC1 | 1.71 µM | IC50 (PBLUC_HILL_SLOPE 61.7, PBLUC_R_SQUARED 0.378, read-out: LUCIFERASE INFECTION ASSAY - IC50): 1.65 µM
40 | CC(Sc1nc(-c2ccccc2)c(-c2ccccc2)o1)C(=O)NC1CC1 (stereo not given) | 5.53 µM | IC50 (PBLUC_HILL_SLOPE 75.9, PBLUC_R_SQUARED 0.255, read-out: LUCIFERASE INFECTION ASSAY - IC50): 5.37 µM
